One series has as its target T1, H4R (Homo sapiens, UniProt Q9H3N8).
T1 construct: expressed in transfected cells; host or cells: HEK293 (HEK293 GPRv53 50 cells)
Kind of series: competitive binding assay, GPRv53 (H4R). The conditions noted are these: for Ki: competitive binding, selectivity panel; for inhibition of binding to H4R: in contrast to H3R. On the procedure: cDNA for the human GPRv53 receptor was cloned and expressed as described in (Preparation of Histamine Receptor Subtype Membranes: A), above. Transfected cells were selected, tested for histamine binding, and selected. HEK293 GPRv53 50 cells were grown to confluency in DMEM/F12 (Gibco) supplemented with 5% FBS and 500 ug/ml G418 and washed with Delbecco's PBS (Gibco) and harvested by scraping. Whole cells were homogenized with a Polytron tissuemizer in binding buffer, 50 mM Tris pH 7.5. Cell lysates, 50 ug, were incubated in 96 well dishes with 3 nM (3H) Histamine and compounds in binding buffer for 2 hours at room temperature. Lysates were filtered through glass fiber filters (Perlin Elmer) with a Tomtec cell harverster. Filters were counted with melt-on scintillator sheets (Perlin Elmer) in a Wallac Trilux 1450 Microbeta Scintillation counter for 5 minutes.
(§1) To investigate the selectivity of the antagonists for the histamine receptors, a competitive binding assay described above was performed. […] Until the present invention, most known H3R antagonists also bound H4R.

Another series has as its target T2, H3R membranes (Homo sapiens, UniProt Q9Y5N1).
T2 construct: expressed in transfected cells; host or cells: HEK293 (clone H3R8)
Kind of series: [35S]GTPγS binding assay (antagonist activity). It is filed as biochemical. Conditions: inhibition of [35S]GTPγS binding to H3R membranes in presence of agonist R(-)alpha methylhistamine. The protocol: Membranes isolated as described in (Preparation of Histamine Receptor Subtype Membranes) were used in a [35S]GTPχS functional assay. Binding of [35S]GTPχS to membranes indicates agonist activity. Compounds of the invention of Formula I were tested for their ability to inhibit binding in the presence of agonists. Alternately, the same transfected cell lines were used for a cAMP assay wherein H3R agonists inhibited forskolin-activated synthesis of cAMP. Compounds of Formula I were tested for their ability to permit forskolin-stimulated cAMP synthesis in the presence of agonist.
(§2) cDNA for the human histamine 3 receptor was cloned and expressed as described in (Preparation of Histamine Receptor Subtye Membranes: A), above. Transfected cells were selected using G418 ([…]), grown, and tested for histamine binding by the SPA described above. For total binding, cells were assayed in a SPA reaction described above containing 50 mM Tris-HCL (assay buffer), pH 7.6, 1 mg wheat germ agglutinin SPA beads (Amersham Pharmacia Biotech, #RPNQ0001), and 1nM […]-n-alpha-methylhistamine (NEN, NET1027) (total volume per well=200μl). Thioperimide was added to determine non-specific binding. […]
Antagonist activity of selected compounds was tested for inhibition of [35S] […] Plates were counted in Wallac Trilux 1450 Microbeta scintillation counter for 1 minute. […]

Another series addresses T3, H3R (Homo sapiens, UniProt Q9Y5N1).
T3 construct: expressed in transfected cells; host or cells: HEK293 (clone H3R8)
Kind of series: competitive inhibition SPA binding assay, H3R. The conditions noted are these: selectivity panel.
Description: The inventive compounds can readily be evaluated by using a competitive inhibition Scintillation Proximity Assay (SPA) based on a H3R binding assay using [3H] a methylhistamine as ligand. Stable cell lines, including but not limited to HEK can be transfected with cDNA coding for H3R to prepare membranes used for the binding assay. The technique is illustrated below (Preparation of Histamine Receptor Subtype Membranes) for the histamine receptor subtypes.
as §2, with “binding. Several clones were selected as positive for binding, and a single clone (H3R8) was used to prepare membranes for binding studies described above. Five micrograms of protein was used per well in the SPA receptor-binding assay.” for “binding.”

The target in a further series is T4, H2R (Homo sapiens, UniProt P25021).
T4 construct: expressed in transfected cells; host or cells: HEK 293 (clone H2R10)
T4 sequence (P25021 whole entry): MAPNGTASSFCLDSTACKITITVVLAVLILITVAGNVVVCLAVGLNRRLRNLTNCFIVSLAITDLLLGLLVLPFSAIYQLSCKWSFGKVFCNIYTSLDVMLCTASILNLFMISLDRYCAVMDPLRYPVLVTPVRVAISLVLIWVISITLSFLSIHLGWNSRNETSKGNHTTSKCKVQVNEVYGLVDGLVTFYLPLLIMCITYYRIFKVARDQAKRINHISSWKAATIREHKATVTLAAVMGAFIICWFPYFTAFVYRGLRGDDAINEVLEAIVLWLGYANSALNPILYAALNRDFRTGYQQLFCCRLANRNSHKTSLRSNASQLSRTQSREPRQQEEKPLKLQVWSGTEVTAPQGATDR
Nature of the series: competitive SPA binding assay, H2R. The conditions noted are these: selectivity panel. On the procedure: cDNA for the human histamine 2 receptor was cloned, expressed and transfected into HEK 293 cells as described above. Histamine binding to cells was assayed by SPA described above. For total binding, cells were assayed in a SPA reaction containing 50 mM Tris-HCl (assay buffer), pH 7.6, 1 mg wheat germ agglutinin SPA beads (Amersham PharmaciaBiotech, #RPNQ0001), and 6.2 nM ^3H-tiotidine (Net-688, NEN) (total volume per well=200 μl). Cimetidine (10 μM, Sigma #C4522) was added to appropriate wells to determine non-specific binding.
Several clones were selected as positive for binding, and a single clone (H2R10) was used to prepare membranes for binding studies. Five micrograms of protein was used per well in the SPA receptor-binding assay.
as §1

The target in the next series is T5, H1R (Homo sapiens, UniProt P35367).
T5 construct: expressed in transfected cells; host or cells: HEK293 (clone HIR40), vector pcDNA3.1(+)
T5 sequence (P35367 whole entry): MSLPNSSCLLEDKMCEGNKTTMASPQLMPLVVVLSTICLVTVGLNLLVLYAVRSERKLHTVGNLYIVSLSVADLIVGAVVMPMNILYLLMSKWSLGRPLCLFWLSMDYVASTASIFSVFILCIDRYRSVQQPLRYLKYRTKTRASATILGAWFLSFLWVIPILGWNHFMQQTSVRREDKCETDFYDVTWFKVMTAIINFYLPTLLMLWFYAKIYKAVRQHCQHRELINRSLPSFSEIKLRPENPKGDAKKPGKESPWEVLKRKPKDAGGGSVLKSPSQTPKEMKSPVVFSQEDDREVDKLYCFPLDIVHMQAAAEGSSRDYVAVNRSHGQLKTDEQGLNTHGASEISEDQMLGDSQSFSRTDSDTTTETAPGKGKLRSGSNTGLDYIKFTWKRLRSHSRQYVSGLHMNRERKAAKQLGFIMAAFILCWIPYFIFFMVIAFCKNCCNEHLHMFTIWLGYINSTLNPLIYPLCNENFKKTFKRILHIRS
Kind of series: competitive SPA binding assay, H1R. The conditions noted are these: selectivity panel. On the procedure: cDNA for the human histamine 1 receptor (H1R) was cloned into a mammalian expression vector containing the CMV promoter (pcDNA3.1(+), Invitogen) and transfected into HEK293 cells using the FuGENE Tranfection Reagent (Roche Diagnostics Corporation). Transfected cells were selected using G418 (500 μ/ml). Colonies that survived selection were grown and tested for histamine binding to cells grown in 96-well dishes using a scintillation proximity assay (SPA) based radioligand binding assay. Briefly, cells, representing individual selected clones, were grown as confluent monolayers in 96-well dishes (Costar Clear Bottom Plates, #3632) by seeding wells with 25,000 cells and growing for 48 hours (37° C., 5% CO2). Growth media was removed and wells were rinsed two times with PBS (minus Ca^2+ or Mg^2+). For total binding, cells were assayed in a SPA reaction containing 50 mM Tris-HCL (assay buffer), pH 7.6, 1 mg wheat germ agglutinin SPA beads (Amersham Pharmacia Biotech, #RPNQ0001), and 0.8 nM ^3H-pyrilamine (Net-594, NEN) (total volume per well=[…]). Astemizole (10 μM, Sigma #A6424) was added to appropriate wells to determine non-specific binding. Plates were covered with FasCal and incubated at room temperature for 120 minutes. […] Plates were counted in a Wallac Trilux 1450 Microbeta scintillation counter. […]

The nature of series [1]: rat pharmacokinetics iv/po. The conditions noted are these: male, Sprague Dawley, blood; for bioavailability: 3 mg/kg iv or 10 mg/kg po, AUC 0-8 hr po/iv ratio, vehicle water; for half-life: 10 mg/kg po. Type of series: in vivo, Male Sprague Dawley Rats. The protocol: Non-imidazole containing histamine H3 receptor antagonists disclosed in the literature generally have very poor pharmacokinetic properties (see J. Apelt, et al, J. Med. Chem. 2002, 45, 1128-1141). […] Male Sprague Dawley Rats (n=3 per dose arm) were separately dosed with 3 mg/kg iv or 10 mg/kg po of compound examples 8 and 19 (vehicle: water; dose volume: 1 mL/kg iv, 10 ml/kg po). Approximately 0.5 mL of blood was collected in heparin collection tubes at multiple time points over an 8 or 24 hour period for examples 8 and 19 respectively, and the samples were analyzed using LC/MS/MS.

As a reminder, the Ki is the equilibrium dissociation constant of an inhibitor or competing ligand from its target. What is called bioavailability is dose-corrected exposure relative to a reference, in per cent. Broadly, the half-life is the time needed for the level to fall by half in the phase considered.

Structures are written as SMILES. Structures can show the parent of a compound that is named as a salt.

T1 sequence (Q9H3N8 whole entry): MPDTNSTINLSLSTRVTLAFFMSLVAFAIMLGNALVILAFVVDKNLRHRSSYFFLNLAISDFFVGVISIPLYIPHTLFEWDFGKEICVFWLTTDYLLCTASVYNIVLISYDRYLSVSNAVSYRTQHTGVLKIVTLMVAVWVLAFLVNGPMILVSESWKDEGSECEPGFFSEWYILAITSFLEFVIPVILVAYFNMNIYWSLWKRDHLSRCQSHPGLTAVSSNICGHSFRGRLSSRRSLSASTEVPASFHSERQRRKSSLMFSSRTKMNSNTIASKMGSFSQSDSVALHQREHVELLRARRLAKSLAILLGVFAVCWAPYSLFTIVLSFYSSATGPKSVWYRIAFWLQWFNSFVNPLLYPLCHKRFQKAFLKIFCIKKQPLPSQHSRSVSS
T2 sequence (Q9Y5N1 whole entry): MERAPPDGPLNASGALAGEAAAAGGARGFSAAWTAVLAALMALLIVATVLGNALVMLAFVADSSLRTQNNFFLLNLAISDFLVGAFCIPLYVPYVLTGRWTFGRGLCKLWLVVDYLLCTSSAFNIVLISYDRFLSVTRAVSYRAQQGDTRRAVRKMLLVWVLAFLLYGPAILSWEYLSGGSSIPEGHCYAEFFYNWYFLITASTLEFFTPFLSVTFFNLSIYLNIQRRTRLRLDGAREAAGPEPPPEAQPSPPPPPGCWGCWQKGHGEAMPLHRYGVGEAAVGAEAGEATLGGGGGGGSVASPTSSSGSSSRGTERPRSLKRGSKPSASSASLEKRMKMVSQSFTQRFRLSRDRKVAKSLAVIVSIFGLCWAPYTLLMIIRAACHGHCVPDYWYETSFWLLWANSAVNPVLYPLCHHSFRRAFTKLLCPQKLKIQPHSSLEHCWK
T3 sequence (Q9Y5N1 whole entry): as above

As to `CC(C)(C)OC(=O)N1CCCc2cc(OCCCN3CCCCC3)ccc2C1` [Example 1, 7-(3-Piperidin-1-yl-propoxy)-1,3,4,5-tetrahydro-benzo[c]azepine-2-carboxylic acid tert-butyl ester], the Ki on H4R is ≥ 20000 nM; on H3R membranes it was 5.1 nM; on H3R, 5.1 nM; at H2R, 813 nM; on H1R, 648 nM. In addition, the “inhibition of binding to H4R” value at H4R was “did not inhibit binding H4R”.
As for `c1cc2c(cc1OCCCN1CCCCC1)CCCNC2` [Example 2, 7-(3-Piperidin-1-yl-propoxy)-2,3,4,5-tetrahydro-1H-benzo[c]azepine dihydrochloride], the inhibition constant Ki on H4R is ≥ 20000 nM; on H3R membranes, 0.85 nM; on H3R, 0.85 nM; on H2R, 894 nM; on H1R it was 1760 nM. Further, the “inhibition of binding to H4R” value on H4R was “did not inhibit binding H4R”.
For `CN(C)CC(=O)N1CCCc2cc(OCCCN3CCCCC3)ccc2C1` [Example 8, 2-Dimethylamino-1-[7-(3-piperidin-1-yl-propoxy)-1,3,4,5-tetrahydro-benzo[c]azepin-2-yl]-ethanone], in series [1], the bioavailability came out at 49% and the half-life is 732 min.
In the case of `CC(=O)N1CCc2ccc(OCCCN3CCCCC3)cc2CC1` [Example 19, 1-[7-(3-Piperidin-1-yl-propoxy)-1,2,4,5-tetrahydro-benzo[d]azepin-3-yl]-ethanone], in series [1], the bioavailability stood at 100% and the half-life was 744 min.

Values taken from US20060089347A1, “Substituted azepines as histamine h3 receptor antagonists, preparation and therapeutic uses” (Eli Lilly and Company, priority 2002, published 2006).
